Data: US20260250257A1, “ANTIBACTERIAL AND SYNERGISTIC ACTIVE COMPOUND AND USE THEREOF” (EAST CHINA UNIVERSITY OF SCIENCE AND TECHNOLOGY, priority 2023, published 2026)
Converted amounts (≈) assume the structure as drawn.

Legend:
Format in all cases: cell-based
[1] = test system: ATCC13883 strain (Klebsiella pneumoniae); experiment: Checkerboard antibacterial synergistic activity test with polymyxin E (FIC); set-up: key: FIC≤0.5 synergy; 0.5–1 additive; 1–2 indifferent; ≥2 antagonism; conditions: combined with polymyxin E
How it was run: (§1)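 First, two-fold series of polymyxin E (16–0.015 μg/ml) and compound (256–4 μg/ml) were made in MH broth. Next, combinations went into a 96-well grid, bacterial liquid was added, and plates sat at 37° C. for 16 h. Finally, FIC was computed and classed (≤0.5 synergistic).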

[2] = test system: ATCC19606 strain (Acinetobacter baumannii); experiment: as above; set-up: key: FIC≤0.5 synergy; 0.5–1 additive; 1–2 indifferent; ≥2 antagonism; conditions: combined with polymyxin E
How it was run: as §1

[3] = test system: ATCC25922 strain (Escherichia coli); experiment: as above; set-up: key: FIC≤0.5 synergy; 0.5–1 additive; 1–2 indifferent; ≥2 antagonism; conditions: combined with polymyxin E
How it was run: as §1

[4] = test system: ATCC9027 strain (Pseudomonas aeruginosa); experiment: as above; set-up: key: FIC≤0.5 synergy; 0.5–1 additive; 1–2 indifferent; ≥2 antagonism; conditions: combined with polymyxin E
How it was run: as §1

[5] = test system: ATCC13883 strain (Klebsiella pneumoniae); experiment: Broth microdilution, antibacterial activity of the compound used alone
Text: (§2) The broth microdilution method was used to test the antibacterial effects of the compounds of the present invention against various Gram-negative bacterial strains when used alone.

[6] = test system: ATCC19606 strain (Acinetobacter baumannii); experiment: as above
Text: as §2

[7] = test system: ATCC25922 strain (Escherichia coli); experiment: as above
Text: as §2

[8] = test system: ATCC9027 strain (Pseudomonas aeruginosa); experiment: as above
Text: as §2

Row | Compound | Synergistic activity (FIC value) ATCC13883 [1] | Synergistic activity (FIC value) ATCC19606 [2] | Synergistic activity (FIC value) ATCC25922 [3] | Synergistic activity (FIC value) ATCC9027 [4] | Antibacterial activity of the compound of Formula I, ATCC13883 [5] | Antibacterial activity of the compound of Formula I, ATCC19606 [6] | Antibacterial activity of the compound of Formula I, ATCC25922 [7] | Antibacterial activity of the compound of Formula I, ATCC9027 [8] | MIC ([5]; read-out: Antibacterial activity of the compound of Formula I, ATCC13883) | MIC ([6]; read-out: Antibacterial activity of the compound of Formula I, ATCC19606) | MIC ([7]; read-out: Antibacterial activity of the compound of Formula I, ATCC25922) | MIC ([8]; read-out: Antibacterial activity of the compound of Formula I, ATCC9027)
1 | FC(F)(F)c1ccc(-c2cccs2)c(-c2c[nH]c(N=C3NCCCN3)n2)c1 [Compound I-140] | 1.25 | 0.51 | 1.25 | 0.52 | 256 µg/mL | 256 µg/mL | 256 µg/mL | 256 µg/mL | – | – | – | –
2 | O=C(NC1CC1)c1ccc(-c2nccs2)c(-c2nc(N=C3NCCCN3)sc2Br)c1 [Compound I-141] | 1.25 | 0.51 | 1.25 | 0.52 | 256 µg/mL | 256 µg/mL | 256 µg/mL | 256 µg/mL | – | – | – | –
3 | Cc1ccccc1Oc1ccccc1-c1nc(N=C2NCCCN2)oc1Cl [Compound I-142] | 0.09 | 0.31 | 0.14 | 0.06 | 256 µg/mL | 256 µg/mL | 256 µg/mL | 256 µg/mL | – | – | – | –
4 | Cc1ccc(Oc2ccccc2-c2csc(NC3=NCCCN3)n2)c(C)c1 [Compound I-143] | 0.19 | 0.38 | 0.04 | 0.04 | – | – | – | – | 256 µg/mL (≈ 676 µM) | 256 µg/mL (≈ 676 µM) | 256 µg/mL (≈ 676 µM) | 256 µg/mL (≈ 676 µM)
5 | COc1ccc(Oc2ccccc2-c2nc(N=C3NCCCN3)sc2C)c(C)c1 [Compound I-144] | 0.16 | 0.03 | 0.18 | 0.28 | 256 µg/mL | 256 µg/mL | 256 µg/mL | 256 µg/mL | – | – | – | –
6 | Cc1sc(N=C2NCCCN2)nc1-c1ccccc1Oc1ccccc1Cl [Compound I-145] | 0.13 | 0.04 | 0.2 | 0.28 | 256 µg/mL | 256 µg/mL | 256 µg/mL | 256 µg/mL | – | – | – | –
7 | Clc1ccc(Oc2ccccc2-c2c[nH]c(N=C3NCCCN3)n2)c(Cl)c1 [Compound I-146] | 0.09 | 0.31 | 0.14 | 0.06 | 256 µg/mL | 256 µg/mL | 256 µg/mL | 256 µg/mL | – | – | – | –
8 | Ic1ccccc1Oc1ccccc1-c1csc(N=C2NCCCN2)n1 [Compound I-147] | 0.16 | 0.03 | 0.18 | 0.28 | 128 µg/mL | 256 µg/mL | 128 µg/mL | 64 µg/mL | – | – | – | –
9 | Clc1sc(N=C2NCCCN2)nc1-c1ccccc1Oc1ccc(I)cc1I [Compound I-148] | 0.09 | 0.31 | 0.14 | 0.06 | 256 µg/mL | 256 µg/mL | 256 µg/mL | 256 µg/mL | – | – | – | –
10 | COc1ccc(Oc2ccccc2-c2csc(N=C3NCCCN3)n2)c(OC)c1 [Compound I-149] | 0.16 | 0.03 | 0.18 | 0.28 | 256 µg/mL | 256 µg/mL | 256 µg/mL | 256 µg/mL | – | – | – | –
11 | Clc1ccc(Oc2cc(Cl)ccc2-c2c[nH]c(N=C3NCCCN3)n2)c(Cl)c1 [Compound I-150] | 0.09 | 0.31 | 0.14 | 0.06 | 256 µg/mL | 256 µg/mL | 256 µg/mL | 256 µg/mL | – | – | – | –
12 | Fc1ccc(-c2csc(N=C3NCCCN3)n2)c(Oc2ccc(Cl)cc2Cl)c1 [Compound I-151] | 0.16 | 0.03 | 0.18 | 0.28 | 256 µg/mL | 256 µg/mL | 256 µg/mL | 256 µg/mL | – | – | – | –
13 | Cc1ccccc1Oc1cccc(-c2coc(N=C3NCCCN3)n2)c1 [Compound I-152] | 0.19 | 0.38 | 0.04 | 0.04 | 256 µg/mL | 256 µg/mL | 256 µg/mL | 256 µg/mL | – | – | – | –
14 | Cc1ccc(Oc2cccc(-c3csc(N=C4NCCCN4)n3)c2)c(C)c1 [Compound I-153] | 0.09 | 0.31 | 0.14 | 0.06 | 256 µg/mL | 256 µg/mL | 256 µg/mL | 256 µg/mL | – | – | – | –
15 | COc1ccc(Oc2cccc(-c3csc(N=C4NCCCN4)n3)c2)c(C)c1 [Compound I-154] | 0.19 | 0.38 | 0.04 | 0.04 | 256 µg/mL | 256 µg/mL | 256 µg/mL | 256 µg/mL | – | – | – | –
16 | CS(=O)(=O)c1ccc(Oc2ccccc2Cl)cc1-c1nc(N=C2NCCCN2)sc1Cl [Compound I-155] | 0.16 | 0.03 | 0.18 | 0.28 | 128 µg/mL | 256 µg/mL | 128 µg/mL | 64 µg/mL | – | – | – | –
17 | Oc1cc(Oc2ccc(Cl)cc2Cl)cc(-c2csc(N=C3NCCCN3)n2)c1 [Compound I-156] | 0.13 | 0.04 | 0.2 | 0.28 | 256 µg/mL | 256 µg/mL | 256 µg/mL | 256 µg/mL | – | – | – | –
18 | N#Cc1cc(Oc2ccccc2I)cc(-c2coc(N=C3NCCCN3)n2)c1 [Compound I-157] | 0.09 | 0.31 | 0.14 | 0.06 | 256 µg/mL | 256 µg/mL | 256 µg/mL | 256 µg/mL | – | – | – | –
